Results published in patent publication US20150291514A1, “N-Aminosulfonyl Benzamides” (Pfizer Limited, priority 2012, published 2015).
Counter-ions that a name gives are not always drawn.

Molecular target: T1, Nav1.7 (or SCN9A) channel (Homo sapiens, UniProt Q15858)
T1 construct: expressed in transfected cells
Experiment: Nav1.7 (hSCN9A) PatchXpress electrophysiology assay
Type: cell-based
Details: estimated IC50 from single point electrophysiology data; PatchXpress platform; HEK cells expressing hSCN9A, held at V1/2 of inactivation; read-out: Nav1.7 EIC50
Description: The ability of the compounds of formula (I) to block the Nav1.7 (or SCN9A) channel were measured using the assay described below.
Human Embryonic Kidney (HEK) cells were transfected with an hSCN9A construct using lipofectamine reagent (Invitrogen), using standard techniques. Cells stably expressing the hSCN9A constructs were identified by their resistance to G-418 (400 μg/ml). Clones were screened for expression using the whole-cell voltage-clamp technique.
HEK cells stably transfected with hSCN9A were maintained in DMEM medium supplemented with 10% heat-inactivated fetal bovine serum and 400 μg/ml G-418 in an incubator at 37° C. with a humidified atmosphere of 10% CO2. For HTS, cells were harvested from flasks by trypsinization and replated in an appropriate multi-well plate (typically 96 or 384 wells/plate) such that confluence would be achieved within 24 hours of plating. For electrophysiological studies, cells were removed from the culture flask by brief trypsinization and re-plated at low density onto glass cover slips. Cells were typically used for electrophysiological experiments within 24 to 72 hours after plating.
Cover slips containing HEK cells expressing hSCN9A were placed in a bath on the stage of an inverted microscope and perfused (approximately 1 ml/minutes) with extracellular solution of the following composition: 138 mM NaCl, 2 mM CaCl2, 5.4 mM KCl, 1mM MgCl2, 10 mM glucose, and 10 mM HEPES, pH 7.4, with NaOH. […] The osmolarity of the extracellular and intracellular solutions was 300 mOsm/kg and 295 mOsm/kg, respectively. All recordings were made at room temperature (22-24° C.) using AXOPATCH 200B amplifiers and PCLAMP software (Axon Instruments, Burlingame, Calif.).
hSCN9A currents in HEK cells were measured using the whole-cell configuration of the patch-clamp technique (Hamill et al., 1981). Uncompensated series resistance was typically 2 to 5 mega ohms and >85% series resistance compensation was routinely achieved. As a result, voltage errors were negligible and no correction was applied. Current records were acquired at 20 to 50 KHz and filtered at 5 to 10 KHz.
HEK cells stably transfected with hSCN9A were viewed under Hoffman contrast optics and placed in front of an array of flow pipes emitting either control or compound-containing extracellular solutions. All compounds were dissolved in dimethyl sulfoxide to make 10 mM stock solutions, which were then diluted into extracellular solution to attain the final concentrations desired. […] The voltage-dependence of inactivation was determined by applying a series of depolarizing prepulses (8 sec long in 10 mV increments) from a negative holding potential. The voltage was then immediately stepped to 0 mV to assess the magnitude of the sodium current. Currents elicited at 0 mV were plotted as a function of prepulse potential to allow estimation of the voltage at which 50% of the channels were inactivated (midpoint of inactivation or V1/2). Compounds were tested for their ability to inhibit hSCN9A sodium channels by activating the channel with a 20 msec voltage step to 0 mV following an 8 second conditioning prepulse to the empirically determined V1/2. Compound effect (% inhibition) was determined by difference in current amplitude before and after application of test compounds. For ease of comparison, “estimated IC-50” (EIC50) values were calculated from single point electrophysiology data by the following equation, (tested concentration, uM)×(100-% inhibition/% inhibition). Inhibition values <20% and >80% were excluded from the calculation.
Electrophysiological assays were conducted with PatchXpress 7000 hardware and associated software (Molecular Devices Corp). All assay buffers and solutions were identical to those used in conventional whole-cell voltage clamp experiments described above. hSCN9A cells were grown as above to 50%-80% confluency and harvested by trypsinization. […]

T1 sequence (Q15858 whole entry): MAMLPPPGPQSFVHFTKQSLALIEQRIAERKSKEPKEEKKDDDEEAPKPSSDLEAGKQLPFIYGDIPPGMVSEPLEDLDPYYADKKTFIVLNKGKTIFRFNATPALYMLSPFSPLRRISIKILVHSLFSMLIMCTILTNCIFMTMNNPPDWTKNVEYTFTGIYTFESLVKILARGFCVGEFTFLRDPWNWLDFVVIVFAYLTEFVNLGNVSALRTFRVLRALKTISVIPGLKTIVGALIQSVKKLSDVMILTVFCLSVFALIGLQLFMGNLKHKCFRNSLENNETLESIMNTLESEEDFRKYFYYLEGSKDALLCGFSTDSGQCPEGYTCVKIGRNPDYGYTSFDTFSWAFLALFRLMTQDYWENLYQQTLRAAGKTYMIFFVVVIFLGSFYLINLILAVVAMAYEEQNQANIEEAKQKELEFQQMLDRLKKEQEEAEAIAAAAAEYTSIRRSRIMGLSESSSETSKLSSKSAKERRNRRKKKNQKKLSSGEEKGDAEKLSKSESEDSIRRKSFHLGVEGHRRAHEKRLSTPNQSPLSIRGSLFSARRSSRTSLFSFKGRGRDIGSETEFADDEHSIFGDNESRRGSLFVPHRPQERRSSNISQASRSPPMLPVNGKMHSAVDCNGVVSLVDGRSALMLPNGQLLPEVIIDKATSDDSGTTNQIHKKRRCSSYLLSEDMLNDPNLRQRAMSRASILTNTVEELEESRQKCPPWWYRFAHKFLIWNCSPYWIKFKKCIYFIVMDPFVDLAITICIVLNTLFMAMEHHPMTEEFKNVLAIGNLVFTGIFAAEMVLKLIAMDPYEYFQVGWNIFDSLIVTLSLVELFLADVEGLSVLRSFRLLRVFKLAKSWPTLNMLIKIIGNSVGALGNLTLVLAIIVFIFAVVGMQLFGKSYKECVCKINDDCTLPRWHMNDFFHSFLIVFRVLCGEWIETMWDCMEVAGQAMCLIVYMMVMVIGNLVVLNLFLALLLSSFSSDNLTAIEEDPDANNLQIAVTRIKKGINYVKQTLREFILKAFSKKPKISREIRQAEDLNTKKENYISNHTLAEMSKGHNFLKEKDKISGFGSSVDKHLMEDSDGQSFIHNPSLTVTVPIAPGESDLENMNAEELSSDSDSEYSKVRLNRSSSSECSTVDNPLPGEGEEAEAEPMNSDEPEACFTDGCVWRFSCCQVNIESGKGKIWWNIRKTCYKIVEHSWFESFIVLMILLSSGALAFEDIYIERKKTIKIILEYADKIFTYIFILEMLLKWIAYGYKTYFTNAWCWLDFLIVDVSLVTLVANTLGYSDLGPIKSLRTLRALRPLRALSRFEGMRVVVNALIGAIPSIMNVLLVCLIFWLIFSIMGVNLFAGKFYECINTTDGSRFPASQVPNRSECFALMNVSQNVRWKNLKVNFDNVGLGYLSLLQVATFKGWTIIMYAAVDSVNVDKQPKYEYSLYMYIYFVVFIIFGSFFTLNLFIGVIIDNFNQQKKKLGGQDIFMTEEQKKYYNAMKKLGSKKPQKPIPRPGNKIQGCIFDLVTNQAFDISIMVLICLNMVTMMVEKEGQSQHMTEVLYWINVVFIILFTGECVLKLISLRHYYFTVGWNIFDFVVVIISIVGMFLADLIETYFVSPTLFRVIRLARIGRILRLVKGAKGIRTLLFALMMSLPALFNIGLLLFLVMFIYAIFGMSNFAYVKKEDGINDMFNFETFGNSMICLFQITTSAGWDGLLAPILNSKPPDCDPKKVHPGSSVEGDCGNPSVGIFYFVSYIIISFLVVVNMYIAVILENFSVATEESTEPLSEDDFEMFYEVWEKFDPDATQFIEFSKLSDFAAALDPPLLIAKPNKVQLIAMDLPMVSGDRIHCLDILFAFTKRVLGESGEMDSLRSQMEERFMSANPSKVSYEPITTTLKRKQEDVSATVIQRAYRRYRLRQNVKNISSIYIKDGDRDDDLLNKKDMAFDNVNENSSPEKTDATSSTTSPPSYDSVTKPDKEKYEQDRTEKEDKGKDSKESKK

| SMILES | IC50 [nM] |
| --- | --- |
| COc1cccc(Oc2cc(F)c(C(=O)NS(=O)(=O)N(C)C)cc2F)c1 [Example 14, N-[(dimethylamino)sulfonyl]-2,5-difluoro-4-(3-methoxyphenoxy)benzamide diethylamine salt] | 7500 |
| N#Cc1cc(C(=O)NS(N)(=O)=O)ccc1Oc1ccccc1-c1ccccc1 [Example 18, N-(aminosulfonyl)-4-(biphenyl-2-yloxy)-3-cyanobenzamide diethylamine salt] | 34000 |
| CN(C)S(=O)(=O)NC(=O)c1ccc(Oc2ccc(Cl)cc2-c2ccnnc2)cc1 [Example 16, 4-(4-chloro-2-pyridazin-4-ylphenoxy)-N-[(dimethylamino)sulfonyl]benzamide] | 4900 |
| O=C(NS(=O)(=O)N1CCC1)c1cc(Cl)c(Oc2cnc(OCC(F)(F)C(F)F)c(Cl)c2)cc1F [Example 41, N-(azetidin-1-ylsulfonyl)-5-chloro-4-{[5-chloro-6-(2,2,3,3-tetrafluoropropoxy)pyridin-3-yl]oxy}-2-fluorobenzamide] | 100 |
| COc1ccccc1Oc1ccc(C(=O)NS(=O)(=O)N(C)C)cc1 [Example 8, N-[(dimethylamino)sulfonyl]-4-(2-methoxyphenoxy)benzamide diethylamine salt] | > 30000 |
| C[C@@H]1CCCN1c1ncc(Oc2cc(F)c(C(=O)NS(=O)(=O)N(C)C)cc2F)cc1Cl [Example 29, 4-({5-chloro-6-[(2R)-2-methylpyrrolidin-1-yl]pyridine-3-yl}oxy)-N-[(dimethylamino)sulfonyl]-2,5-dfluorobenzamide formate salt] | 240 |
| COc1cc(Cl)ccc1Oc1ccc(C(=O)NS(=O)(=O)N(C)C)cc1 [Example 5, 4-(4-chloro-2-methoxyphenoxy)-N-[(dimethylamino)sulfonyl]benzamide] | 7100 |
| COc1cc(Cl)ccc1Oc1cc(F)c(C(=O)NS(N)(=O)=O)cc1F [Example 6, N-(aminosulfonyl)-4-(4-chloro-2-methoxvphenoxy)-2,5-difluorobenzamide] | 7300 |
| CC(C)COc1ncc(Oc2ccc(C(=O)NS(=O)(=O)N(C)C)cc2)cc1Cl [Example 11, 4-[(5-chloro-6-isobutoxypyridin-3-yl)oxy]-N-[(dimethylamino)sulfonyl]benzamide diethylamine salt] | 2100 |
| NS(=O)(=O)NC(=O)c1ccc(Oc2ccc(Cl)cc2-c2ccnnc2)cc1 [Example 15, N-(aminosulfonyl)-4-(4-chloro-2-pyridazin-4-ylphenoxy)benzamide] | > 3000 |
| CNS(=O)(=O)NC(=O)c1ccc(Oc2ccc(Cl)c(C(F)(F)F)c2)cc1 [Example 3, 4-[4-chloro-3-(trifluoromethyl)phenoxy]-N-[(methylamino)sulfonyl]benzamide diethylamine salt] | 4800 |
| [2H]C([2H])([2H])C([2H])(Oc1ncc(Oc2cc(F)c(C(=O)NS(=O)(=O)N(C)C)cc2F)cc1Cl)C([2H])([2H])[2H] [Example 17, 4-[(5-chloro-6-isopropoxypyridin-3-yl)oxy]-N-[(dimethylamino)sulfonyl]-2,5-difluorobenzamide-d7] | 200 |
| CC(C)COc1ncc(Oc2ccc(C(=O)NS(N)(=O)=O)cc2)cc1Cl [Example 10, N-(aminosulfonyl)-4-[(5-chloro-6-isobutoxypyridin-3-yl)oxy]benzamide diethylamine salt] | 6300 |
| CN(C)S(=O)(=O)NC(=O)c1ccc(Oc2ccc(Cl)c(C(F)(F)F)c2)cc1 [Example 1, 4-[4-Chloro-3-(trifluoromethyl)phenoxy]-N-[(dimethylamino)sulfonyl]benzamide diethylamine salt] | 2600 |
| COc1ccccc1Oc1cc(F)c(C(=O)NS(=O)(=O)N(C)C)cc1Cl [Example 12, 5-chloro-N-[(dimethylamino)sulfonyl]-2-fluoro-4-(2-methoxyphenoxy)benzamide diethylamine salt] | > 1000 |

Continued, values first:

| IC50 [nM] | SMILES |
| --- | --- |
| 480 | CN(C)S(=O)(=O)NC(=O)c1cc(F)c(Oc2cnc(N3CCCC3)c(Cl)c2)cc1F [Example 26, 4-[(5-chloro-6-pyrrolidin-1-ylpyridin-3-yl)oxy]-N-[(dimethylamino)sulfonyl]-2,5-difluorobenzamide formate salt] |
| 590 | CN(C)S(=O)(=O)NC(=O)c1cc(F)c(Oc2cnc(OCC(F)(F)F)c(Cl)c2)cc1F [Example 34, 4-[(5-chloro-6-(2,2,2-trifluoroethoxy)pyridin-3-yl)oxy]-N-[(dimethylamino)sulfonyl]-2,5-difluorobenzamide diethylamine salt] |
| 6600 | CNS(=O)(=O)NC(=O)c1cc(F)c(Oc2cnc(OC(C)C)c(Cl)c2)cc1F [Example 31, 4-[(5-chloro-6-isopropoxypyridin-3-yl)oxy]-N-[(methylamino)sulfonyl]-2,5-difluorobenzamide] |
| 500 | CN(C)S(=O)(=O)NC(=O)c1cc(F)c(Oc2cnc(OCC(C)(C)F)c(Cl)c2)cc1F [Example 33, 4-[(5-chloro-6-(2-fluoro-2-methylpropoxy)pyridin-3-yl)oxy]-N-[(dimethylamino)sulfonyl]-2,5-difluorobenzamide diethylamine salt] |
| 2500 | CN(C)c1ncc(Oc2cc(F)c(C(=O)NS(=O)(=O)N(C)C)cc2F)cc1Cl [Example 22, 4-{[5-chloro-6-(dimethylamino)pyridine-3-yl]oxy}-N-[(dimethylamino)sulfonyl]-2,5-difluorobenzamide formate salt] |
| 670 | CN(CC1CC1)c1ncc(Oc2cc(F)c(C(=O)NS(=O)(=O)N(C)C)cc2F)cc1Cl [Example 23, 4-({5-chloro-6-[(cyclopropylmethyl)(methyl)amino]pyridine-3-yl}oxy)-N-[(dimethylamino)sulfonyl]-2,5-difluorobenzamide formate salt] |
| 660 | CC(Oc1ncc(Oc2cc(F)c(C(=O)NS(=O)(=O)N(C)C)cc2F)cc1Cl)C(F)(F)F (stereo not shown) [Example 36, 4-((5-chloro-6-((1,1,1-trifluoropropan-2-yl)oxy)pyridin-3-yl)oxy)-N-[(dimethylamino)sulfonyl]-2,5-difluorobenzamide] |
| 160 | CN(C)S(=O)(=O)NC(=O)c1cc(F)c(Oc2cnc(NC34CC(C3)C4)c(Cl)c2)cc1F [Example 28, 4-{[6-(pyridin[1.1.1]pent-1-ylamino)-5-chloropyridin-3-yl]oxy}-N-[(dimethylamino)sulfonyl]-2,5-difluorobenzamide formate salt] |
| 290 | CN(C)S(=O)(=O)NC(=O)c1cc(F)c(Oc2cnc(OCC3CC3)c(Cl)c2)cc1F [Example 32, 4-[(5-chloro-6-(cyclopropylmethoxy)pyridin-3-yl)oxy]-N-[(dimethylamino)sulfonyl]-2,5-difluorobenzamide] |
| 9800 | CNc1ncc(Oc2cc(F)c(C(=O)NS(=O)(=O)N(C)C)cc2F)cc1Cl [Example 25, 4-{[5-chloro-6-(methylamino)pyridine-3-yl]oxy}-N-[(dimethylamino)sulfonyl]-2,5-difluorobenzamide formate salt] |
| 660 | CC(C)N(C)c1ncc(Oc2cc(F)c(C(=O)NS(=O)(=O)N(C)C)cc2F)cc1Cl [Example 24, 4-({5-chloro-6-[isopropyl(methyl)amino]pyridine-3-yl}oxy)-N-[(dimethylamino)sulfonyl]-2,5-difluorobenzamide formate salt] |
| 100 | O=C(NS(=O)(=O)N1CCC1)c1cc(Cl)c(Oc2ccc(Cl)c(Cl)c2)cc1F [Example 42, N-(azetidin-1-ylsulfonyl)-5-chloro-4-(3,4-dichlorophenoxy)-2-fluorobenzamide] |
| 470 | CC(C)Oc1ncc(Oc2cc(F)c(C(=O)NS(=O)(=O)N(C)C)cc2F)cc1Cl [Example 30, 4-[(5-chloro-6-isopropoxypyridin-3-yl)oxy]-N-[(dimethylamino)sulfonyl]-2,5-difluorobenzamide] |
